In patent publication US7786083B2, “Metastin derivatives and use thereof” (Takeda Pharmaceutical Company Limited, priority 2006, dated 2010):
*1 amine or outer side, *2 acyl side, *3 side chain or, on linkers, in order; H or OH if unused. Where a SMILES comes first, the peptide text is derived from it. [ ]: non-standard residue; d: D form. Glyψ(E-CHCH)Leu = CC(C)C[C@H](/C=C/CN[*:1])C(=O)[*:2]; Glyψ(CH2S)Leu = CC(C)C[C@H](SCCN[*:1])C(=O)[*:2]; X8 = O=C(CSC[C@H](Cc1ccccc1)N[*:1])[*:2]; Arg(Me) = CNC(=N)NCCC[C@H](N)C(=O)O; Dap(CONH2) = NC(=O)NC[C@H](N)C(=O)O; Ala(cPr) = N[C@@H](CC1CC1)C(=O)O; Hyp = O=C(O)[C@@H]1C[C@@H](O)CN1; tBuAla = CC(C)(C)C[C@H](N)C(=O)O; Cha = N[C@@H](CC1CCCCC1)C(=O)O; Cba = N[C@@H](CC1CCC1)C(=O)O; Nle = CCCC[C@H](N)C(=O)O; Nva = CCC[C@H](N)C(=O)O

These molecules were tested on metastin receptors (assay: Measurement of agonist activity by assaying changes in intracellular calcium ion level (FLIPR, Fluo-4 NW)). Settings: specific activity of the EC50 of a test compound based on the EC50 of Metastin (45-54), metastin receptor expression CHO cells.
Assay type: cell-based, human
Outline: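 CHO/dhfr⁻ cells stably expressing human or rat metastin receptor, seeded 3×10^4/well for 24 h, loaded with Fluo-4 NW 30 min at 37 °C in HBSS with 0.1% BSA, 20 mM HEPES pH 7.4 and 1 mM probenecid. Compound-stimulated intracellular calcium change read on FLIPR.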

Compared with `CCC[C@H](NC(=O)CNC(=O)[C@H](Cc1ccccc1)NC(=O)[C@@H](NC(=O)[C@H](CC(N)=O)NC(=O)[C@@H]1C[C@@H](O)CN1C(=O)[C@@H](Cc1ccc(O)cc1)NC(C)=O)[C@@H](C)O)C(=O)N[C@@H](CCCNC(=N)NC)C(=O)N[C@@H](Cc1c[nH]c2ccccc12)C(N)=O` [Compound No. 918, des(1)-Ac-[D-Tyr2,Hyp3,Thr5,Nva8,Arg(Me)9,Trp10]MS10] (Ac-[dY][Hyp]NTFG[Nva][Arg(Me)]W-NH2), `CNC(=N)NCCC[C@H](NC(=O)[C@H](CC(C)C)SCCNC(=O)[C@H](Cc1ccccc1)NC(=O)[C@@H](NC(=O)[C@H](CC(N)=O)NC(=O)[C@@H]1C[C@@H](O)CN1C(=O)[C@@H](Cc1ccc(O)cc1)NC(C)=O)[C@@H](C)O)C(=O)N[C@@H](Cc1c[nH]c2ccccc12)C(N)=O` [Compound No. 929, des(1)-Ac-[D-Tyr2,Hyp3,Thr5,Gly7Ψ(CH2S)Leu8,Arg(Me)9,Trp10]MS10] (Ac-[dY][Hyp]NTF[Glyψ(CH2S)Leu][Arg(Me)]W-NH2) is higher in “Specific Activity” value: 0.7 for the first, 1.2 for the second.

`CNC(=N)NCCC[C@H](NC(=O)[C@H](COC)NC(=O)CNC(=O)[C@H](CC1CCCCC1)NC(=O)[C@@H](NC(=O)[C@H](CC(N)=O)NC(=O)[C@@H]1C[C@@H](O)CN1C(=O)[C@@H](Cc1ccc(O)cc1)NC(C)=O)[C@@H](C)O)C(=O)N[C@@H](Cc1c[nH]c2ccccc12)C(N)=O` [Compound No. 920, des(1)-Ac-[D-Tyr2,Hyp3,Thr5,Cha6,Ser(Me)8,Arg(Me)9,Trp10]MS10] (Ac-[dY][Hyp]NT[Cha]GS(Me)[Arg(Me)]W-NH2) and `CCC[C@H](NC(=O)CNC(=O)[C@H](CC1CCCCC1)NC(=O)[C@@H](NC(=O)[C@H](CC(N)=O)NC(=O)[C@@H]1C[C@@H](O)CN1C(=O)[C@@H](Cc1ccc(O)cc1)NC(C)=O)[C@@H](C)O)C(=O)N[C@@H](CCCNC(=N)NC)C(=O)N[C@@H](Cc1c[nH]c2ccccc12)C(N)=O` [Compound No. 921, des(1)-Ac-[D-Tyr2,Hyp3,Thr5,Cha6,Nva8,Arg(Me)9,Trp10]MS10] (Ac-[dY][Hyp]NT[Cha]G[Nva][Arg(Me)]W-NH2) are the same in “Specific Activity” value: 0.5 for the first, 0.5 for the second.

Going from `CNC(=N)NCCC[C@H](NC(=O)[C@H](COC)NC(=O)CNC(=O)[C@H](CC1CCCCC1)NC(=O)[C@@H](NC(=O)[C@H](CC(N)=O)NC(=O)[C@H](CCC(=O)O)NC(=O)[C@@H](Cc1ccc(O)cc1)NC(C)=O)[C@@H](C)O)C(=O)N[C@@H](Cc1c[nH]c2ccccc12)C(N)=O` [Compound No. 923, des(1)-Ac-[D-Tyr2,Glu3,Thr5,Cha6,Ser(Me)8,Arg(Me)9,Trp10]MS10] (Ac-[dY]ENT[Cha]GS(Me)[Arg(Me)]W-NH2) to `CCC[C@H](NC(=O)CNC(=O)[C@H](CC1CCCCC1)NC(=O)[C@@H](NC(=O)[C@H](CC(N)=O)NC(=O)[C@H](CCC(=O)O)NC(=O)[C@@H](Cc1ccc(O)cc1)NC(C)=O)[C@@H](C)O)C(=O)N[C@@H](CCCNC(=N)NC)C(=O)N[C@@H](Cc1c[nH]c2ccccc12)C(N)=O` [Compound No. 924, des(1)-Ac-[D-Tyr2,Glu3,Thr5,Cha6,Nva8,Arg(Me)9,Trp10]MS10] (Ac-[dY]ENT[Cha]G[Nva][Arg(Me)]W-NH2), the “Specific Activity” value falls from 0.5 to 0.4.

Compared with `CC(=O)N[C@H](Cc1ccc(O)cc1)C(=O)N1C[C@H](O)C[C@H]1C(=O)N[C@@H](CC(N)=O)C(=O)N[C@H](C(=O)N[C@@H](Cc1ccccc1)C(=O)NC/C=C/[C@@H](CC(C)C)C(=O)N[C@@H](CCCNC(=N)N)C(=O)N[C@@H](Cc1c[nH]c2ccccc12)C(N)=O)[C@@H](C)O` [Compound No. 925, des(1)-Ac-[D-Tyr2,Hyp3,Thr5,Gly7Ψ((E)CH═CH)Leu8,Trp10]MS10] (Ac-[dY][Hyp]NTF[Glyψ(E-CHCH)Leu]RW-NH2), `CC(=O)N[C@H](Cc1ccc(O)cc1)C(=O)N1C[C@H](O)C[C@H]1C(=O)N[C@@H](CC(N)=O)C(=O)N[C@H](C(=O)N[C@@H](CC1CCCCC1)C(=O)NC/C=C/[C@@H](CC(C)C)C(=O)N[C@@H](CCCNC(=N)N)C(=O)N[C@@H](Cc1c[nH]c2ccccc12)C(N)=O)[C@@H](C)O` [Compound No. 926, des(1)-Ac-[D-Tyr2,Hyp3,Thr5,Cha6,Gly7Ψ((E)CH═CH)Leu8,Trp10]MS10] (Ac-[dY][Hyp]NT[Cha][Glyψ(E-CHCH)Leu]RW-NH2) is higher in “Specific Activity” value: 0.4 for the first, 0.6 for the second.

First: CC(=O)N[C@H](Cc1ccc(O)cc1)C(=O)N1C[C@H](O)C[C@H]1C(=O)N[C@@H](CNC(N)=O)C(=O)N[C@H](C(=O)N[C@@H](CC1CCCCC1)C(=O)NC/C=C/[C@@H](CC(C)C)C(=O)N[C@@H](CCCNC(=N)N)C(=O)N[C@@H](Cc1c[nH]c2ccccc12)C(N)=O)[C@@H](C)O [Compound No. 927, des(1)-Ac-[D-Tyr2,Hyp3,Alb4,Thr5,Cha6,Gly7Ψ((E)CH═CH)Leu8,Trp10]MS10] (Ac-[dY][Hyp][Dap(CONH2)]T[Cha][Glyψ(E-CHCH)Leu]RW-NH2)
Second: CNC(=N)NCCC[C@H](NC(=O)[C@H](CC(C)C)SCCNC(=O)[C@H](CC1CCCCC1)NC(=O)[C@@H](NC(=O)[C@H](CC(N)=O)NC(=O)[C@@H]1C[C@@H](O)CN1C(=O)[C@@H](Cc1ccc(O)cc1)NC(C)=O)[C@@H](C)O)C(=O)N[C@@H](Cc1c[nH]c2ccccc12)C(N)=O [Compound No. 931, des(1)-Ac-[D-Tyr2,Hyp3,Thr5,Cha6,Gly7Ψ(CH2S)Leu8,Arg(Me)9,Trp10]MS10] (Ac-[dY][Hyp]NT[Cha][Glyψ(CH2S)Leu][Arg(Me)]W-NH2)
The “Specific Activity” value of the first is lower: 0.5 for the first, 1.7 for the second.

First: CCCC[C@H](NC(=O)CNC(=O)[C@H](CC1CCCCC1)NC(=O)[C@@H](NC(=O)[C@H](CC(N)=O)NC(=O)[C@@H]1C[C@@H](O)CN1C(=O)[C@@H](Cc1ccc(O)cc1)NC(C)=O)[C@@H](C)O)C(=O)N[C@@H](CCCNC(=N)NC)C(=O)N[C@@H](Cc1c[nH]c2ccccc12)C(N)=O [Compound No. 932, des(1)-Ac-[D-Tyr2,Hyp3,Thr5,Cha6,Nle8,Arg(Me)9,Trp10]MS10] (Ac-[dY][Hyp]NT[Cha]G[Nle][Arg(Me)]W-NH2)
Second: CNC(=N)NCCC[C@H](NC(=O)[C@H](CC(C)(C)C)NC(=O)CNC(=O)[C@H](CC1CCCCC1)NC(=O)[C@@H](NC(=O)[C@H](CC(N)=O)NC(=O)[C@@H]1C[C@@H](O)CN1C(=O)[C@@H](Cc1ccc(O)cc1)NC(C)=O)[C@@H](C)O)C(=O)N[C@@H](Cc1c[nH]c2ccccc12)C(N)=O [Compound No. 933, des(1)-Ac-[D-Tyr2,Hyp3,Thr5,Cha6,Leu(Me)8,Arg(Me)9,Trp10]MS10] (Ac-[dY][Hyp]NT[Cha]G[tBuAla][Arg(Me)]W-NH2)
The “Specific Activity” value of the first is lower: 0.6 for the first, 1.4 for the second.

Going from `CNC(=N)NCCC[C@H](NC(=O)[C@H](CC1CCCCC1)NC(=O)CNC(=O)[C@H](CC1CCCCC1)NC(=O)[C@@H](NC(=O)[C@H](CC(N)=O)NC(=O)[C@@H]1C[C@@H](O)CN1C(=O)[C@@H](Cc1ccc(O)cc1)NC(C)=O)[C@@H](C)O)C(=O)N[C@@H](Cc1c[nH]c2ccccc12)C(N)=O` [Compound No. 934, des(1)-Ac-[D-Tyr2,Hyp3,Thr5,Cha6,8,Arg(Me)9,Trp10]MS10] (Ac-[dY][Hyp]NT[Cha]G[Cha][Arg(Me)]W-NH2) to `CNC(=N)NCCC[C@H](NC(=O)[C@H](CC1CCC1)NC(=O)CNC(=O)[C@H](CC1CCCCC1)NC(=O)[C@@H](NC(=O)[C@H](CC(N)=O)NC(=O)[C@@H]1C[C@@H](O)CN1C(=O)[C@@H](Cc1ccc(O)cc1)NC(C)=O)[C@@H](C)O)C(=O)N[C@@H](Cc1c[nH]c2ccccc12)C(N)=O` [Compound No. 946, des(1)-Ac-[D-Tyr2,Hyp3,Thr5,Cha6,Ala(cBu)8,Arg(Me)9,Trp10]MS10] (Ac-[dY][Hyp]NT[Cha]G[Cba][Arg(Me)]W-NH2), the “Specific Activity” value falls from 3.5 to 0.5.

Going from `CC(=O)N[C@H](Cc1ccc(O)cc1)C(=O)N1C[C@H](O)C[C@H]1C(=O)N[C@@H](CC(N)=O)C(=O)N[C@H](C(=O)N[C@@H](CC1CCCCC1)C(=O)NCC(=O)N[C@@H](CC1CC1)C(=O)N[C@@H](CCCNC(=N)N)C(=O)N[C@@H](Cc1c[nH]c2ccccc12)C(N)=O)[C@@H](C)O` [Compound No. 940, des(1)-Ac-[D-Tyr2,Hyp3,Thr5,Cha6,Ala(cPr)8,Trp10]MS10] (Ac-[dY][Hyp]NT[Cha]G[Ala(cPr)]RW-NH2) to `CNC(=N)NCCC[C@H](NC(=O)[C@H](CC1CC1)NC(=O)CNC(=O)[C@H](CC1CCC1)NC(=O)[C@@H](NC(=O)[C@H](CC(N)=O)NC(=O)[C@@H]1C[C@@H](O)CN1C(=O)[C@@H](Cc1ccc(O)cc1)NC(C)=O)[C@@H](C)O)C(=O)N[C@@H](Cc1c[nH]c2ccccc12)C(N)=O` [Compound No. 945, des(1)-Ac-[D-Tyr2,Hyp3,Thr5,Ala(cBu)6,Ala(cPr)8,Arg(Me)9,Trp10]MS10] (Ac-[dY][Hyp]NT[Cba]G[Ala(cPr)][Arg(Me)]W-NH2), the “Specific Activity” value rises from 0.5 to 0.7.

First: CC(=O)N[C@H](Cc1ccc(O)cc1)C(=O)N[C@@H](CCC(=O)O)C(=O)N[C@@H](CC(N)=O)C(=O)N[C@H](C(=O)N[C@@H](CC1CCCCC1)C(=O)NCC(=O)N[C@@H](CC1CC1)C(=O)N[C@@H](CCCNC(=N)N)C(=O)N[C@@H](Cc1c[nH]c2ccccc12)C(N)=O)[C@@H](C)O [Compound No. 942, des(1)-Ac-[D-Tyr2,Glu3,Thr5,Cha6,Ala(cPr)8,Trp10]MS10] (Ac-[dY]ENT[Cha]G[Ala(cPr)]RW-NH2)
Second: CNC(=N)NCCC[C@H](NC(=O)[C@H](CC1CC1)NC(=O)CNC(=O)[C@H](CC1CCCCC1)NC(=O)[C@H](CO)NC(=O)[C@H](CNC(N)=O)NC(=O)[C@@H]1C[C@@H](O)CN1C(=O)[C@@H](Cc1ccc(O)cc1)NC(C)=O)C(=O)N[C@@H](Cc1c[nH]c2ccccc12)C(N)=O [Compound No. 948, des(1)-Ac-[D-Tyr2,Hyp3,Alb4,Ser5,Cha6,Ala(cPr)8,Arg(Me)9,Trp10]MS10] (Ac-[dY][Hyp][Dap(CONH2)]S[Cha]G[Ala(cPr)][Arg(Me)]W-NH2)
The “Specific Activity” value of the first is lower: 0.4 for the first, 0.5 for the second.

`CNC(=N)NCCC[C@H](NC(=O)[C@H](CC(C)C)NC(=O)CSC[C@H](Cc1ccccc1)NC(=O)[C@@H](NC(=O)[C@H](CC(N)=O)NC(=O)[C@@H]1C[C@@H](O)CN1C(=O)[C@@H](Cc1ccc(O)cc1)NC(C)=O)[C@@H](C)O)C(=O)N[C@@H](Cc1c[nH]c2ccccc12)C(N)=O` [Compound No. 944, des(1)-Ac-[D-Tyr2,Hyp3,Thr5,Phe6Ψ(CH2S)Gly7,Arg(Me)9,Trp10]MS10] (Ac-[dY][Hyp]NT[X8]L[Arg(Me)]W-NH2) was tested, and the “Specific Activity” value was 0.7.
